Measurements as given in patent US4283329A, “Pharmacologically active peptides” (Eli Lilly and Company, priority 1979, dated 1981).
Where a SMILES comes first, the peptide text is derived from it. [ ]: non-standard residue; d: D form. Phe(4-F) = N[C@@H](Cc1ccc(F)cc1)C(=O)O; NMeM = CN[C@@H](CCSC)C(=O)O

Tested on: mouse
Assay: mouse hot plate test (analgesic activity)
Type: in vivo
Conditions: subcutaneous, hot plate 52° C., 15 minutes after administration, latency until jump
Method: In this test, a mouse is placed inside on upright acrylic cylinder comprising, as its base, a hot plate surface which is maintained at 52° C. The mouse is given, orally or by subcutaneous injection, a predetermined amount of test compound dissolved or suspended in a suitable carrier, and, 15 minutes after administration of the test compound, the mouse is placed on the hot plate surface. The latency in seconds until the mouse jumps from the hot plate surface is measured. […] This must occur in a dose range which produces no motor incoordination or incapacitation. The following Table records the ED50 results obtained from this test.

In order of rising “Analgesic Activity, Hot Plate Test, ED50” value:
1. CSCC[C@@H](C(N)=O)N(C)C(=O)[C@H](Cc1ccc(F)cc1)NC(=O)CNC(=O)[C@@H](C)NC(=O)[C@@H](N)Cc1ccc(O)cc1 [Example 1, L-Tyrosyl-D-alanyl glycyl-L-p-fluorophenylalanyl-L-(N^α -methyl)methionin amide]  0.023 mg/kg
2. C[C@@H](NC(=O)[C@@H](N)Cc1ccc(O)cc1)C(=O)NCC(=O)N[C@@H](Cc1ccc(F)cc1)C(=O)N[C@H](C(N)=O)c1ccccc1 [Example 3 L-Pgl, L-Tyrosyl-D-alanyl-glycyl-L-p-fluorophenylalanyl-L-phenylglycinamide]  0.063 mg/kg
3. CSCC[C@@H](C(N)=O)N(C)C(=O)[C@H](Cc1ccc(F)cc1)NC(=O)CNC(=O)[C@H](NC(=O)[C@@H](N)Cc1ccc(O)cc1)[C@H](C)O [Example 4, L-Tyrosyl-D-threonylglycyl-L-p-fluorophenylalanyl-L-(N^α -methyl)methioninamide] (H-Y[dT]G[Phe(4-F)][NMeM]-NH2)  0.088 mg/kg
4. C[C@@H](NC(=O)[C@@H](N)Cc1ccc(O)cc1)C(=O)NCC(=O)N[C@@H](Cc1ccc(F)cc1)C(=O)N[C@@H](C(N)=O)c1ccccc1 [Example 3 D-Pgl, L-Tyrosyl-D-alanyl-glycyl-L-p-fluorophenylalanyl-D-phenylglycinamide]  0.103 mg/kg
5. COc1ccc([C@H](NC(=O)[C@H](Cc2ccc(F)cc2)NC(=O)CNC(=O)[C@@H](C)NC(=O)[C@@H](N)Cc2ccc(O)cc2)C(N)=O)cc1 [Example 2, L-Tyrosyl-D-alanyl-glycyl-L-p-fluorophenylalanyl-L-p-methoxyphenylglycinamide]  1.04 mg/kg

Tested on: not given
Assay: not given
Conditions: administered parenterally; cited from earlier work

For “H-Tyr-Gly-Gly-Phe-Leu-OH [leucine enkephalin]”, the analgesic activity is listed as “practically devoid of any useful analgesic activity”.
For “H-Tyr-Gly-Gly-Phe-Met-OH [methionine enkephalin]”, the analgesic activity is given as “practically devoid of any useful analgesic activity”.
